# Values quoted from earlier work in patent publication US20130164233A1, “SKIN-WHITENING ESSENCE COMPOSITION CONTAINING TYROSINASE INHIBITOR” (priority 2011, published 2013).
# Tested on: skin
# Conditions: conventionally
smiles,measurement,value
NC[C@H]1CC[C@H](C(=O)O)CC1 [tranexamic acid],Concentration needed to give whitening effect,higher than 3%
